Like-named read-outs stand apart in the source and are kept apart here. Marks after values point to notes of the source that are not given here.
Assays:
[1] = previous work, similar conditions, room temperature, after 2 months; cited from earlier work
[2] = Arsenazo III dye displacement, indirect kinetics of Th^4+ complexation; format: physicochemical; details: for k2: 5 μM Th^4+, 25 μM Arsenazo III, 75 μM ligand (15 equiv.), 100 mM HEPES (pH 7.4), 25° C.
Method: Another important aspect of chelators for radiopharmaceutical applications is the kinetics of complexation with the radiometal of interest. A ligand must be able to bind the radioactive metal ion rapidly and completely to minimize the extent of radioactive decay before administration in vivo. […] To access the suitability of DOTHOPO and MeDOTHOPO in this context, we sought to determine the kinetics of Th^4+ complexation of these chelators in aqueous solution at 25° C. […] Following literature precedent,^35 the relative rate of metal complexation by these ligands could be studied indirectly using the dye Arsenazo III, which forms highly colored complexes with Th^4+ with a prominent absorbance band at 669 nm.^92 The addition of excess chelator to solutions of Th^4+ and Arsenazo III caused the dye to be displaced and the formation of the metal-chelator complex could be monitored by the disappearance of the absorbance features corresponding to the metal-dye compound (FIG. 4).
The aim of these experiments was to determine a second-order rate constant for the complexation reaction of Th^4+ by DOTHOPO and MeDOTHOPO. […] For comparison purposes, the second-order rate constant of complexation was calculated using the reaction of 15 equiv. of ligand relative to metal (Table 4, see SI for details). The [ThL] (L=DOTHOPO, MeDOTHOPO) complexes form rapidly in aqueous solution. The second-order halflives, calculated for 10 μM each of metal and ligand, are 30 and 18 min for DOTHOPO and MeDOTHOPO respectively. The faster complexation kinetics of MeDOTHOPO compared to DOTHOPO can likely be attributed to the increased flexibility of the ligand.

[3] = Spectrophotometric titration, cumulative formation constants and pM with Fe^3+; format: physicochemical; details: 25° C., I = 0.1M KCl; for pM, Fe^3+: pM = -log[M]free, [M]tot = 10^−6M, [L]tot = 10^−5M, pH 7.4
Method: The affinity of these ligands for Fe3+ was explored as a representative endogenous metal that could compete with Th^4+ in vivo. The stability constants of DOTHOPO and MeDOTHOPO with Fe^3+ were determined by incremental spectrophotometric titrations, similar to those described for Zr^4+ and Th^4+ in the Supporting Information.
(§1) The log βmlh values reported above are pH-independent absolute stability constants. Because these ligands have differing pKa values, competition between H^+ and the metal of interest under different pH conditions will give rise to different pH-dependent conditional stability constants that are not accurately described by log βML values. To mitigate this issue and allow for direct comparison between ligands, we calculated the pM values (pM=−log[Mfree], where Mfree=solvated metal ions free of complexation by ligand or hydroxide when [L]=10^−5 M and [M]=10^−6 M)^85 for each ligand with the Fe^3+, Zr^4+, and Th^4+ (Table 3).

[4] = Potentiometric titration, protonation constants (pKa); format: physicochemical; details: for ΣpKa: sum of the pKa values tentatively assigned to protonation of the HOPO units
Method: The protonation constants (pKa) of the synthesized ligands were determined potentiometrically in 0.1 M KCl. […] Based on previous studies involving ligands bearing the tetraazacyclododecane backbone,^80-82 the remaining two pKa values likely correspond to protonation of two of the amine groups present in the macrocycle (Table 1). The 1,2-HOPO donors of MeDOTHOPO are approximately 1 pKa unit more basic than those of 3,4,3-LI-(1,2-HOPO) or DOTHOPO.

[5] = UV-vis spectrophotometric titration, cumulative formation constants and pM with Th^4+; format: physicochemical; details: 25° C., I = 0.1M KCl; for pM, Th^4+: pM = -log[M]free, [M]tot = 10^−6M, [L]tot = 10^−5M, pH 7.4, MeDOTHOPO predicted from Table 2 log β
Description: (§2) We next sought to evaluate the thermodynamic stabilities of the Zr^4+ and Th^4+ complexes of DOTHOPO and MeDOTHOPO by measuring their cumulative formation constants (log βmlh, see Supplementary Information for details). […] Above pH 10, the complexes dissociate to yield the free ligand and metal-hydroxide species, which could be leveraged to determine the stability constants of the Zr^4+ and Th^4+ complexes via UV-vis spectrophotometric titrations (FIGS. 2 and 3). […] The pH dependent species distribution diagrams for DOTHOPO with Zr^4+ and Th^4+ are provided in the Supporting Information. Importantly, the metal remains completely bound by the chelator below pH 10 and the major species present at pH 7.4 is the 1:1 ML complex for both metals. […] As such, the log βmlh values of MeDOTHOPO with Zr^4+ and Th^4+ were predicted to be ≥51 and ≥53, respectively, using Hyss (Table 2).
as §1

[6] = UV-vis spectrophotometric titration, cumulative formation constants and pM with Zr^4+; format: physicochemical; details: 25° C., I = 0.1M KCl; for pM, Zr^4+: pM = -log[M]free, [M]tot = 10^−6M, [L]tot = 10^−5M, pH 7.4, MeDOTHOPO predicted from Table 2 log β
Description: as §2, §1

[7] = cited from earlier work
[8] = cited from earlier work; remark: listed apart in the source
[9] = 25° C., I = 0.1M KCl; reference 48; cited from earlier work
[10] = 25° C., I = 0.1M KCl; reference 48; cited from earlier work; remark: listed apart in the source
[11] = 25° C., I = 0.1M KCl, reference 48
[12] = 25° C., I = 0.1M KCl, data taken from Ref. 48

| SMILES | log βmih, Fe^3+, [FeLH] [3] | log βmih, Fe^3+, [FeL]^− [3] | pM, Fe^3+ [3] | pKa1 ([4]; 25° C., I = 0.1M KCl, n = 5) | pKa2 ([4]; 25° C., I = 0.1M KCl, n = 5) | pKa3 ([4]; 25° C., I = 0.1M KCl, n = 5) | pKa4 ([4]; 25° C., I = 0.1M KCl, n = 5) | ΣpKa [4] | pM, Th^4+ [5] | k2 [2] [M⁻¹ s⁻¹] | pM, Zr^4+ [6] | further results |
| --- | --- | --- | --- | --- | --- | --- | --- | --- | --- | --- | --- | --- |
| O=C(O)CN1CCN(CC(=O)O)CCN(CC(=O)O)CCN(CC(=O)O)CC1 [DOTA, 1,4,7,10-tetraazacyclododecane-N,N′,N″,N″-1,4,7,10-tetraacetic acid, reference compound] | – | – | – | – | – | – | – | – | – | – | – | displacement of Arsenazo III from Th^4+ [1]: does not displace Arsenazo III; complexation of Th^4+ (Arsenazo III displacement) ([2]; over 24 h at 25° C.): did not show any complexation |
| O=C(c1cccc(=O)n1O)N1CCN(C(=O)c2cccc(=O)n2O)CCN(C(=O)c2cccc(=O)n2O)CCN(C(=O)c2cccc(=O)n2O)CC1 [DOTHOPO] | 33.3(6) | 27.8(4) | 28.7 | 6.43(9) | 5.46(1) | 5.05(3) | 4.28(6) | 21.34 | 35.3 | 54.2 ± 2.8 | 43.7 | log βmih, Th^4+, [ThLH]^+ [5]: 38.5(1); log βmih, Th^4+, [ThL] [5]: 34.4(1); log βmih, Zr^4+, [ZrLH]^+ [6]: 47.0(6); log βmih, Zr^4+, [ZrL] [6]: 42.9(4) |
| O=C(O)CN(CCN(CC(=O)O)CC(=O)O)CCN(CC(=O)O)CC(=O)O [DTPA, reference compound] | – | – | – | – | – | – | – | – | – | 7.9 ± 0.9 | – | – |
| Cn1ccc(C(=O)NCCN(CCNC(=O)c2ccn(C)c(=O)c2O)CCC(Cc2ccc(NC(=O)CCC(=O)O)cc2)N(CCNC(=O)c2ccn(C)c(=O)c2O)CCNC(=O)c2ccn(C)c(=O)c2O)c(O)c1=O (centres unmarked) [L1] | – | – | 25.1 | – | – | – | – | – | 39.9 | – | 42.9 | log βmih, Th^4+, [ThH−1L]^2− [7, 11]: 32.4(4); log βmih, Th^4+, [ThLH] [7, 11]: 45.9(4); log βmih, Th^4+, [ThL]^− [7, 11]: 41.7(3); log βThL ([7]; background, literature value): 41.72; pKa1 [8, 12]: 2.93(35); pKa2 [8, 12]: 4.39(8)^c; pKa3 [8, 12]: 4.73(34); pKa4 [8, 12]: 5.97(14); pKa5 [8, 12]: 6.90(5); pKa6 [8, 12]: 7.74(6); pKa7 [8, 12]: 9.58(16); ΣpKa ([8]; sum of the pKa values assigned to the HOPO units, Ref. 48): 21.99; log βmih, Zr^4+, [ZrLH]^+ [9]: 50.6(2); log βmih, Zr^4+, [ZrL] [9]: 44.7(1); log βmih, Fe^3+, [FeLH] [10]: 31.2(4); log βmih, Fe^3+, [FeL]^− [10]: 26.9(3) |
| O=c1cccc(CN2CCN(Cc3cccc(=O)n3O)CCN(Cc3cccc(=O)n3O)CCN(Cc3cccc(=O)n3O)CC2)n1O [MeDOTHOPO, 1,4,7,10-tetraazacyclododecane-1,4,7,10-tetra(methylene)tetrakis(1-hydroxy-2-pyridinone)] | 39.5(4) | 30.3(2) | 27.6 | 10.52(6) | 9.1(2) | 7.79(8) | 6.63(3) | 24.96 | >48^b | 89.2 ± 8.5 | >46^b | pKa5 ([4]; 25° C., I = 0.1M KCl, n = 5): 6.06(3); pKa6 ([4]; 25° C., I = 0.1M KCl, n = 5): 4.41(6) |
